In patent US20170218375A1, “MORPHOLINOS, MORPHOLINO UPREGULATING, AND ASSOCIATED METHODS” (University of Utah Research Foundation, priority 2011, published 2017):
{Dendrimer} = dendrimer conjugate (vivo-morpholino)

What was measured:
sVEGFR2 mRNA = test: RT-PCR of sVEGFR2 mRNA in mouse MS-1 cell line; assay type: cell-based
From the text: (§1) Because VEGFR2_MOe13 decreases mbVEGFR2 and increases sVEGFR2, it is expected that VEGFR2_MOe13 can inhibit angiogenesis and lymphangiogenesis in vivo. To study the effect of VEGFR2_MOe13 in animal models, moVEGFR2_MOe13 was created that targets the exon13-intron13 junction of the mouse VEGFR2 gene. By RT-PCR analysis, it was found moVEGFR2_MOe13 increased sVEGFR2 mRNA and decreased mbVEGFR2 mRNA in the mouse MS-1 cell line (FIG. 7A). […] FIGS. 7(f, g) show the mean area of corneal neovascularization and lymphangiogenesis respectively (n=13-16). Risk factors (p-value) were calculated by two-tail student's t-test (*: p<0.05, **p<0.01, ***p<0.001). Error bar is ±s.e.m.
(§2) Each morpholino oligomer was purchased from Gene Tools (Philomath, Oreg.). The sequences of each morpholino oligomer and primers for PCR are listed in supplemental Table. […] The cells were washed three times and fluorescence was detected by a FACScan Analyzer (BD Biosciences, San Jose, Calif.). […]
(§3) cDNAs were synthesized from 400 ng total RNA using Omniscript RT kit (Qiagen, Valencia, Calif.) and Oligo-dT primer(dT20) according to the manufacturer's instructions. Real-time PCR was performed using QuantiTect SYBR Green PCR Kit (Qiagen, Valencia, Calif.) and 1 μl of cDNA. […]

mbVEGFR2 mRNA = test: RT-PCR of mbVEGFR2 mRNA in mouse MS-1 cell line; assay type: cell-based
From the text: as §1, §2, §3

mbVEGFR2 protein = test: Western blot for mbVEGFR2 from mouse retinal protein after intravitreous injection; assay type: in vivo; details: 2 μl of 100 ng/μl intravitreously on day 0 and day 3, western blot on day 4
From the text: (§4) To administer morpholinos in vivo, morpholino conjugated with a dendrimer at the 3′ position (vivo-morpholino) was used for animal experiments. It should be understood that this technique is merely exemplary, and any other method of administration is considered to be within the present scope. […] Next, the protein level of mbVEGFR2 and sVEGFR2 in the retina and the ocular solution was examined by western blot. Consistent with real-time PCR results, moVEGFR2_MOe13 decreased mbVEGFR2 protein in the retina (FIG. 7C) and increased sVEGFR2 protein in the ocular solution (FIG. 7D).
(§5) To examine whether moVEGFR2_MOe13 could work in the mouse eye, on day 0 and day 3 2 μl of 100 ng/μl moVEGFR2_MOe13 or STD_MO or DPBS were injected intravitreously. On day 4, retinal total RNA was extracted with RNeasy mini kit with DNaseI treatment. sVEGFR2 and mbVEGFR2 mRNA expression were determined by the method described above. For western blot of mbVEGFR2, on day 4, retina was dissolved in RIPA buffer. For western blot of sVEGFR2, on 4 day, intraocular solution was obtained from 6 eyes by pipette. After centrifuge, supernatant was used for further experiment. For western blot, biotin-conjugated anti-VEGFR2 (BAF644, R&D Systems, Minneapolis, Minn.) was used at 1 μg/μl.

sVEGFR2 protein = test: Western blot for sVEGFR2 from mouse ocular solution after intravitreous injection; assay type: in vivo; details: 2 μl of 100 ng/μl intravitreously on day 0 and day 3, western blot on day 4
From the text: as §4, §5

[1] = system: laser-induced choroidal neovascularization (CNV); test: Laser-induced choroidal neovascularization (CNV) in mouse; assay type: in vivo
Protocol: It was also examined whether moVEGFR2_MOe13 inhibits laser-induced choroidal neovascularization (CNV). Each morpholino or DPBS was injected intravitreously on day 1 and day 4 after laser photocoagulation, and laser CNV volumes were examined on day 7. […] Vessel endothelial cells were stained with Alexa fluor488 conjugated isolectin GS-IB4. […] After photocoagulation, on day 1 and day 4, 2 ul of 100 ng/μl STD_MO, 500 ng/μl Goat IgG (AB-108-C, R&D Systems, Minneapolis, Minn.), 100 ng/μl moVEGFR2_MOe13, 500 ng/μl Goat Anti-mouse VEGF-A IgG (AF-493-NA, R&D Systems, Minneapolis, Minn.) or 2 ng/μl SU1498 (572888, EMD chemicals, Gibbstown, N.J.) was injected intravitreously. On day 7, CNV volumes were measured by confocal microscope. n=14-20 for each group. Risk factors (p-value) were calculated by two-tail student's t-test (*: p<0.05, **p<0.01). Error bar is ±s.e.m.
Each morpholino oligomer was purchased from Gene Tools (Philomath, Oreg.). The sequences of each morpholino oligomer and primers for PCR are listed in supplemental Table. HUVECs (Lonza, Walkersville, Md.) were cultured in EBM with EGM SingleQuot Kit supplements and growth factors according to the manufacturer's instructions (Lonza, Walkersville, Md.). MS-1 cells, a mouse endothelial cell line (ATCC, Manassas, Va.) were cultured in 5% FBS/DMEM. Morpholino oligomers were delivered to the nucleus by nucleofection (Amaxa, Gaithersburg, Md.) with a Basic Nucleofector Kit for Primary Mammalian Endothelial Cells (Amaxa, Gaithersburg, Md.) using program A-034 for HUVEC and MS-1 cells. For each nucleofection, 1×10^6 cells were used and plated on a 6-well plate. After 2 days of culture, cells were trypsinized and total RNA was extracted using a RNeasy mini kit (Qiagen, Valencia, Calif.) with DNaseI treatment. Detection of mbVEGFR2 was achieved by flow cytometry. […] The cells were washed three times and fluorescence was detected by a FACScan Analyzer (BD Biosciences, San Jose, Calif.). […]

With “5′-cacccagggatgcctccatacCTAG-3′ (antisense CACCCAGGGATGCCTCCATACCTAG; all phosphorodiamidate morpholino (PMO), 3' {Dendrimer}) [moVEGFR2_MOe13, morpholino that targets the exon13-intron13 junction of the mouse VEGFR2 gene; in vivo conjugated with a dendrimer (vivo-morpholino)]” the “sVEGFR2 mRNA by RT-PCR” value (sVEGFR2 mRNA) was “increased”, the “mbVEGFR2 mRNA by RT-PCR” value (mbVEGFR2 mRNA) was “decreased” and the “mbVEGFR2 protein in the retina” value (mbVEGFR2 protein) was “decreased”. The “sVEGFR2 protein in the ocular solution” value (sVEGFR2 protein) was “increased”, the “suppression of CNV compared with anti-VEGF-A IgG and SU1498 (FIG. 9)” value ([1]; 2 μl intravitreously day 1 and day 4: 100 ng/μl moVEGFR2_MOe13, 500 ng/μl anti-mouse VEGF-A IgG, 2 ng/μl SU1498, CNV volume day 7) was “comparable” and the “laser CNV volume” value ([1]; intravitreous injection on day 1 and day 4 after laser photocoagulation, volume on day 7, compared with STD_MO (p<0.05) and DPBS (p<0.01)) was “significantly suppressed”.
